Key:
cyclin D1 = assay: Western blotting of cyclin D1 expression in testosterone-treated BPH-1 cells; type: cell-based; settings: testosterone 100 nM, 25, 50 and 100 μM, 24 hours, concentration dependent
PCNA = assay: Western blotting of PCNA expression in testosterone-treated BPH-1 cells; type: cell-based; settings: testosterone 100 nM, 25, 50 and 100 μM, 24 hours, concentration dependent
5 alpha reductase (5AR2) = assay: Western blotting of testosterone-induced 5AR2 expression in LNCaP cells; type: cell-based
Experimental: (§3) The LNCaP cells (2×10^6) were seeded in 6-well plates, and treated with 100 nM testosterone propionate (TP, Tokyo Chemical Industry) and 100 μg/mL each of Abeliophyllum distichum leaf hot water (D.W.), ethanol (EtOH), and hexane (Hexane) extracts for 24 hours. Here, a group treated with 1 μg/mL finasteride (Fi), which is an androgen inhibiting drug, was used as a positive control. After finishing the treatment of the cells, an androgenic receptor signaling-inhibitory effect was analyzed using western blotting. First, the cells were lysed in a protein inhibitor cocktail (Sigma)-containing radioimmunoprecipitation assay (RIPA) buffer, and a protein concentration was estimated using a BCA assay, followed by electrophoresis in a 12% SDS polyacrylamide gel. The gel was then transferred to a membrane using Mini Trans-Blot cells (Bio rad). Subsequently, the membrane was treated with primary antibodies at 4° C. for 12 hours. […] Bands were then detected using an Azure c300 imaging system (Azure Biosystems) by chemiluminescence with an HPR substrate (Advansta Inc., San Jose, CA, USA). Band intensities were quantified by setting the area of each sample using ImageJ software (NIH ver. 1.48, USA) and then setting the area of corresponding β-actin in the same manner as used above, and dividing the area of β-actin by the area of each sample.

PI3K [1] = assay: Western blotting of testosterone-induced PI3K expression in prostatic cells; type: cell-based; settings: depending on the concentration of isoquercetin
5α-reductase 2 (5AR2) = assay: Western blotting of 5AR2 in prostate tissue of BPH animal model; type: in vivo, SD rats; settings: oral 1 mg/kg or 10 mg/kg, 4 weeks; depending on intake concentration
Experimental: (§1) All experiments were conducted in an aseptic environment. Three days after surgical recovery for the BPH-induced group (BPH), testosterone was dissolved in corn oil and then subcutaneously injected daily at 3 mg/kg, inducing BPH. For an Abeliophyllum distichum leaf ethanol extract-administered group (BPH+ADLE), an Abeliophyllum distichum leaf ethanol extract was dissolved in sterile distilled water and orally administered using a zonde at 100 mg/kg for 4 weeks. […]
(§2) For animal experimental groups, protein expression of androgen signaling-related factors, 5α-reductase 2 (5AR2), steroid receptor coactivator 1 (SRC1), an estrogen receptor (ER), and a prostate-specific antigen (PSA), were analyzed. […] Subsequently, bands were then detected using an Azure c300 imaging system (Azure Biosystems) by chemiluminescence with an HPR substrate (Advanta Inc., San Jose, CA, USA). Band intensities were quantified by setting the area of each sample using ImageJ software (NIH ver. 1.48, USA) and then setting the area of corresponding β-actin in the same manner as used above, and dividing the area of β-actin by the area of each sample.

PI3K [2] = assay: Western blotting of PI3K expression in testosterone-treated BPH-1 cells; type: cell-based; settings: testosterone 100 nM, 25, 50 and 100 μM, 24 hours, concentration dependent
[3] = test system: prostate-specific antigen (PSA); assay: Western blotting of testosterone-induced PSA expression in LNCaP cells; type: cell-based; settings: compared among IQ, Rutin, CA and IR
Experimental: as §3

[4] = test system: steroid receptor coactivator 1 (SRC1); assay: Western blotting of SRC1 in prostate tissue of BPH animal model; type: in vivo, SD rats; settings: oral 1 mg/kg or 10 mg/kg, 4 weeks; depending on intake concentration
Experimental: as §1, §2

BPH animal models = assay: Prostate indexes in BPH animal model; type: in vivo, SD rats; settings: 4 weeks
Experimental: All experiments were conducted in an aseptic environment. Three days after surgical recovery for the BPH-induced group (BPH), testosterone was dissolved in corn oil and then subcutaneously injected daily at 3 mg/kg, inducing BPH. For an Abeliophyllum distichum leaf ethanol extract-administered group (BPH+ADLE), an Abeliophyllum distichum leaf ethanol extract was dissolved in sterile distilled water and orally administered using a zonde at 100 mg/kg for 4 weeks. For a saw palmetto-administered group (BPH+Saw) as a positive control, saw palmetto was dissolved in sterile distilled water and orally administered at 100 mg/kg, and for a finasteride-administered group (BPH+Fi), finasteride was orally administered using a zonde at 1 mg/kg per day for 4 weeks. After the experiment, the rats were sacrificed using zoletil, blood samples were collected through heart puncture, and serum was then separated and stored at −80° C. The prostate was separated and weighed using RNAse-free surgical tools, and stored at −80° C., followed by western blotting.
Meanwhile, isoquercetin (IQ) administration was also performed in the same manner and using the same controls as described above, and for a low concentration-administered group (BPH+IQ1), IQ was dissolved in sterile distilled water and then orally administered at 1 mg/kg, and for a high concentration-administered group (BPH+IQ10), IQ was dissolved in sterile distilled water and then orally administered using a zonde at 10 mg/kg for 4 weeks.

AR = assay: Western blotting of AR in prostate tissue of BPH animal model; type: in vivo, SD rats; settings: oral 1 mg/kg or 10 mg/kg, 4 weeks; depending on intake concentration
androgenic receptor (AR) = assay: Western blotting of testosterone-induced AR expression in LNCaP cells; type: cell-based
Experimental: LNCaP cells were treated with testosterone propionate (TP) to induce androgenic receptor signaling, treated with Abeliophyllum distichum leaf hot water (D.W.), ethanol (EtOH), and hexane (Hexane) extracts, followed by confirming the efficacy of inhibiting the expression of an androgenic receptor (AR, SantaCruz), 5 alpha reductase (5AR2, ABCam), and prostate-specific antigen (PSA, SantaCruz) to compare the inhibitory effect on androgenic receptor signaling-related factors per Abeliophyllum distichum leaf extract LNCaP cells in LNCaP cells. The LNCaP cells (2×10^6) were seeded in 6-well plates, and treated with 100 nM testosterone propionate (TP, Tokyo Chemical Industry) and 100 μg/mL each of Abeliophyllum distichum leaf hot water (D.W.), ethanol (EtOH), and hexane (Hexane) extracts for 24 hours. […] After finishing the treatment of the cells, an androgenic receptor signaling-inhibitory effect was analyzed using western blotting. […] Bands were then detected using an Azure c300 imaging system (Azure Biosystems) by chemiluminescence with an HPR substrate (Advansta Inc., San Jose, CA, USA). Band intensities were quantified by setting the area of each sample using ImageJ software (NIH ver. 1.48, USA) and then setting the area of corresponding β-actin in the same manner as used above, and dividing the area of β-actin by the area of each sample. […]

[5] = compared among IQ, Rutin, CA and IR
[6] = testosterone-induced, depending on the concentration of isoquercetin
[7] = oral 1 mg/kg or 10 mg/kg, compared to the BPH-induced model

O=c1c(O[C@@H]2O[C@H](CO)[C@@H](O)[C@H](O)[C@H]2O)c(-c2ccc(O)c(O)c2)oc2cc(O)cc(O)c12 [isoquercetin, 3-(β-D-glucopyranosyloxy)-3′,4′,5,7-tetrahydroxyflavone]
cyclin D1 expression (cyclin D1): significantly reduced
PCNA expression (PCNA): significantly reduced
effect on testosterone-induced 5AR2 expression level among four functional ingredient candidates (5 alpha reductase (5AR2); [5]): most excellent effect
expression of 5AR2 (5 alpha reductase (5AR2); [6]): significantly reduced
expression of PI3K (PI3K [1]): significantly reduced
expression level of 5AR2 in prostate tissue (5α-reductase 2 (5AR2)): reduced
PI3K expression (PI3K [2]): significantly reduced
effect on testosterone-induced PSA expression level among four functional ingredient candidates [3]: most excellent effect
expression level of SRC-1 in prostate tissue [4]: reduced
prostate index (BPH animal models; oral 1 mg/kg and 10 mg/kg, depending on concentration): lowered
prostate weight (BPH animal models; [7]): significantly reduced
ratio of the prostate weight to a body weight (BPH animal models; [7]): significantly decreased
expression level of AR in prostate tissue (AR): reduced
effect on testosterone-induced AR expression level among four functional ingredient candidates (androgenic receptor (AR); [5]): most excellent effect
expression of AR (androgenic receptor (AR); [6]): significantly reduced

Reference: patent US20230310477A1, “PHARMACEUTICAL COMPOSITION COMPRISING ABELIOPHYLLUM DISTICHUM EXTRACT AS ACTIVE INGREDIENT FOR TREATING ANDROGEN RECEPTOR-RELATED DISEASE” (priority 2020, published 2023)
